The supplement of paper PMC10307832

Assays:
Assay in all cases: relative viability (nuclei count vs DMSO), 5 days (fraction); higher = more cells survive
[1] = compound: CC[C@H](Nc1ncnc2[nH]cnc12)c1nc2cccc(F)c2c(=O)n1-c1ccccc1 [Idelalisib] + Nc1nc2[nH]cc(CCc3ccc(C(=O)N[C@@H](CCC(=O)O)C(=O)O)cc3)c2c(=O)[nH]1 [Pemetrexed] (partner 0.2 µM)
Outline: (§1)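 Five library-drug doses in √10 steps were combined with a fixed anchor-drug dose, or a single drug was given alone, by pin tool to lung cancer cell lines in 1536-well plates the day after seeding. Nuclei were stained and counted after 5 days. Relative viability is the nuclei count in treated wells over that in vehicle wells, taken as the median of duplicate plates.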

[2] = compound: Nc1nc2[nH]cc(CCc3ccc(C(=O)N[C@@H](CCC(=O)O)C(=O)O)cc3)c2c(=O)[nH]1 [Pemetrexed] + COc1cccc2cc(-c3nc([C@H]4CC[C@H](C(=O)O)CC4)n4ncnc(N)c34)[nH]c12 [OSI-027] (partner 0.5 µM)
Outline: as §1

[3] = compound: CC[C@H](Nc1ncnc2[nH]cnc12)c1nc2cccc(F)c2c(=O)n1-c1ccccc1 [Idelalisib] + CCNC(=O)c1noc(-c2cc(C(C)C)c(O)cc2O)c1-c1ccc(CN2CCOCC2)cc1 [Luminespib] (partner 0.01 µM)
Outline: as §1

[4] = compound: CC[C@H](Nc1ncnc2[nH]cnc12)c1nc2cccc(F)c2c(=O)n1-c1ccccc1 [Idelalisib]
Outline: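 For viability, nuclei in each treated well were divided by nuclei in vehicle wells and the median across plates was taken. Lung cancer cell lines in 1536-well plates were pinned with five library-drug doses (not always all listed) spaced by √10, cultured 5 days without medium change, and imaged at 4× after Hoechst staining, with plates passing only at control CV below 25% and at least one doubling.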

Cell Line	relative viability ([1]; first compound 0.04 µM)	relative viability ([1]; first compound 0.1265 µM)	relative viability ([1]; first compound 0.4 µM)	relative viability ([1]; first compound 1.265 µM)	relative viability ([1]; first compound 4 µM)	relative viability ([2]; first compound 0.002 µM)	relative viability ([2]; first compound 0.006325 µM)	relative viability ([2]; first compound 0.02 µM)	relative viability ([2]; first compound 0.06325 µM)	relative viability ([2]; first compound 0.2 µM)	relative viability ([3]; first compound 0.04 µM)	relative viability ([3]; first compound 0.1265 µM)	relative viability ([3]; first compound 0.4 µM)	relative viability ([3]; first compound 1.265 µM)	relative viability ([3]; first compound 4 µM)	relative viability ([4]; 0.04 µM)	relative viability ([4]; 0.1265 µM)	relative viability ([4]; 0.4 µM)	relative viability ([4]; 1.265 µM)	relative viability ([4]; 4 µM)
NCI-H1666	0.821	0.835	0.844	0.847	0.996	0.961	0.758	0.955	0.906	0.79	1.09	1.13	1.06	1.01	1.04	1.03	1.04	0.911	0.981	0.902
NCI-H1734	0.417	0.455	0.399	0.363	0.364	0.65	0.564	0.675	0.571	0.53	0.247	0.184	0.203	0.192	0.155	1.15	1.04	0.833	0.959	0.938
NCI-H1755	0.431	0.415	0.38	0.434	0.438	0.685	0.797	0.782	0.691	0.667	0.331	0.339	0.449	0.699	0.293	1.01	1.01	0.955	0.926	0.949
NCI-H1792	0.707	1.09	0.45	0.823	0.631	0.735	0.808	0.778	0.715	0.744	0.408	0.434	–	0.679	0.33	1.08	0.942	0.653	1.09	0.85
NCI-H1793	0.821	0.95	–	0.81	0.627	0.251	0.259	0.309	0.284	0.289	0.208	0.253	0.166	0.179	0.183	1.01	1.02	0.569	0.846	0.545
NCI-H1915	0.503	0.514	0.443	0.363	0.504	0.58	0.631	0.661	0.609	0.573	0.843	0.809	0.759	0.878	0.83	1.08	0.999	0.948	1.11	0.984
NCI-H1944	0.724	0.58	0.516	0.484	0.586	–	0.512	0.43	0.405	0.403	0.809	0.621	0.609	0.636	0.532	1.21	0.943	0.785	1.01	0.803
NCI-H1975	0.292	0.334	0.29	0.276	0.303	0.528	0.681	0.873	0.557	0.394	0.216	0.157	0.16	0.213	0.207	1.02	1.04	0.864	0.921	0.737
NCI-H1993	0.592	0.67	0.548	0.614	0.59	0.609	0.524	0.503	0.504	0.585	0.778	0.889	0.779	1.06	0.822	1.1	1.12	0.804	0.917	0.7
NCI-H2009	0.99	0.996	1.03	1.09	0.991	0.573	0.607	0.749	0.66	0.683	1.01	1.04	1.02	1.11	1.03	0.998	1.02	0.974	1.06	1.04
NCI-H2023	0.244	0.239	0.212	0.169	0.256	0.248	0.38	0.464	0.295	0.166	0.644	0.784	0.79	0.87	0.67	1.05	0.973	0.792	0.818	0.968
NCI-H2085	0.909	0.852	0.789	0.746	0.528	0.653	0.73	0.769	0.85	0.848	0.422	0.409	0.374	0.487	0.257	1.05	0.995	0.91	0.955	0.729
NCI-H2087	0.742	0.671	0.657	0.637	0.695	0.55	0.512	0.538	0.589	0.524	0.198	0.213	0.16	0.165	0.115	1.09	1.13	0.868	1.12	0.749
NCI-H2126	0.848	0.739	0.523	0.769	0.619	0.601	0.805	0.808	0.796	0.691	0.929	0.893	0.802	0.961	0.929	1.02	1.08	0.837	1.03	0.931
NCI-H2170	0.292	0.254	0.268	0.262	0.29	0.656	0.698	0.692	0.708	0.744	0.548	0.843	0.645	0.61	0.673	1.01	1.02	0.88	0.885	0.807
